Data on two compounds can be found in patent US6486185B1, “3-heteroarylidene-2-indolinone protein kinase inhibitors” (Sugen, Inc., priority 1997, dated 2002).

Experiment [1] has as its target T1, EGFR (Homo sapiens, UniProt P00533).
T1 construct: expressed in transfected cells; host or cells: NIH 3T3/C7
The experiment can be described thus: EGF receptor ELISA in cells engineered to express human EGF-R. As to conditions: 50% inhibition of PTK activity over control. It counts as cell-based. The protocol:
(§1) The cellular/catalytic assays described herein are performed in an ELISA format. The general procedure is a follows: a compound is introduced to cells expressing the test kinase, either naturally or recombinantly, for some period of time after which, if the test kinase is a receptor, a ligand known to activate the receptor's activity is added. The cells are lysed and the lysate is transferred to the wells of an ELISA plate previously coated with a specific antibody recognizing the substrate of the enzymatic phosphorylation reaction. Non-substrate components of the cell lysate are washed away and the amount of phosphorylation on the substrate is detected with an antibody specifically recognizing phosphotyrosine compared with control cells that were not contacted with a test compound.
EGF Receptor kinase activity in cells genetically engineered to express human EGF-R can be measured as described below:
The following materials and reagents are used
a. EGF Ligand: stock concentration=16.5 μM; EGF 201, TOYOBO, Co., Ltd. Japan.
b. 05-101 (UBI) (a monoclonal antibody recognizing an EGFR extracellular domain).
c. Anti-phosphotyosine antibody (anti-Ptyr) (polyclonal).
d. Detection antibody: Goat anti-rabbit lgG horse radish peroxidase conjugate, TAGO, Inc., Burlingame, Calif.
Keep solution in dark at 4 C until used.
The following protocol is used:
1. Coat ELISA plates (Corning, 96 well, Cat. #25805-96) with 05-101 antibody at 0.5 μg per well in PBS, 150 μL final volume/well, and store overnight at 4° C. Coated plates are good for up to 10 days when stored at 4° C.
2. On day of use, remove coating buffer and replace with blocking buffer (5% Carnation Instant NonFat Dry Milk in PBS). Incubate the plate, shaking, at room temperature (about 23° C. to 25° C.) for 30 minutes. Just prior to use, remove blocking buffer and wash plate 4 times with TBST buffer.
1. NIH 3T3/C7 cell line (Honegger, et al., Cell 51:199-209, 1987) can be use for this assay.
2. Choose dishes having 80-90% confluence for the experiment. Trypsinize cells and stop reaction by adding 10% CS DMEM medium. Suspend cells in DMEM medium (10% CS DMEM medium) and centrifuge once at 1000 rpm at room temperature for 5 minutes.
3. Resuspend cells in seeding medium (DMEM, 0.5% bovine serum), and count the cells using trypan blue. Viability above 90% is acceptable. Seed cells in DMEM medium (0.5% bovine serum) at a density of 10,000 cells per well, 100 μL per well, in a 96 well microtiter plate. Incubate seeded cells in 5% CO2 at 37° C. for about 40 hours.
1. Check seeded cells for contamination using an inverted microscope. Dilute drug stock (10 mg/mL in DMSO) 1:10 in DMEM medium, then transfer 5 μL to a test well for a final drug dilution of 1:200 and a final DMSO concentration of 1%. Control wells receive DMSO alone. Incubate in 5% CO2 at 37° C. for one hour.
2. Prepare EGF ligand: dilute stock EGF in DMEM so that upon transfer of 10 μL dilute EGF (1:12 dilution), 25 nM final concentration is attained.
3. Prepare fresh 10 mL HNTG* sufficient for 100 μL per well wherein HNTG* comprises: HNTG stock (2.0 mL), milli-Q H2O (7.3 mL), EDTA, 100 mM, pH 7.0 (0.5 mL), Na3VO4 0.5 M (0.1 mL) and Na4(P2O7), 0.2 M (0.1 mL).
5. After two hours incubation with drug, add prepared EGF ligand to cells, 10 μL per well, to yield a final concentration of 25 nM. Control wells receive DMEM alone. Incubate, shaking, at room temperature, for 5 minutes.
6. Remove drug, EGF, and DMEM. Wash cells twice with PBS. Transfer HNTG* to cells, 100 μL per well. Place on ice for 5 minutes. Meanwhile, remove blocking buffer from other ELISA plate and wash with TBST as described above.
7. With a pipette tip securely fitted to a micropipettor, scrape cells from plate and homogenize cell material by repeatedly aspirating and dispensing the HNTG* lysis buffer. Transfer lysate to a coated, blocked, and washed ELISA plate. Incubate shaking at room temperature for one hour.
8. Remove lysate and wash 4 times with TBST. […]
(In an ELISA, binding on a coated surface is turned into a signal by an enzyme label.)

For experiment [2], the target named is T2, IGF-1R (Homo sapiens, UniProt P08069).
T2 construct: expressed in transfected cells; host or cells: NIH3T3 (3T3/IGF-1R)
The experiment can be described thus: IGF-I receptor ELISA in 3T3/IGF-1R cells. It counts as cell-based. As to conditions: 50% inhibition of PTK activity over control. The protocol: as §1
The following protocol may be used to measure phosphotyrosine level on IGF-I receptor, which indicates IGF-I receptor tyrosine kinase activity.
The following materials and reagents are used:
a. The cell line used in this assay is 3T3/IGF-1R, a cell line genetically engineered to overexpresses IGF-1 receptor.
b. NIH3T3/IGF-1R is grown in an incubator with 5% CO2 at 37° C. The growth media is DMEM+10% FBS (heat inactivated)+2 mM L-glutamine.
c. Affinity purified anti-IGF-1R antibody 17-69.
e. Blocking Buffer: TBST plus 5% Milk (Carnation Instant Non-Fat Dry Milk).
Stock solution of TBS (10×) is prepared, and Triton X-100 is added to the buffer during dilution.
Stock solution (5×) is prepared and kept at 4° C.
h. EDTA/HCl: 0.5 M pH 7.0 (NaOH) as 100×stock.
i. Na3VO4: 0.5 M as 100×stock and aliquots are kept in −80° C.
k. Insulin-like growth factor-1 from Promega (Cat# G5111).
l. Rabbit polyclonal anti-phosphotyrosine antiserum.
m. Goat anti-rabbit IgG, POD conjugate (detection antibody), Tago (Cat. No. 4520, Lot No. 1802): Tago, Inc., Burlingame, Calif.
n. ABTS (2,2′-azinobis(3-ethylbenzthiazolinesulfonic acid)) solution:
ABTS solution should be kept in dark and 4° C. The solution should be discarded when it turns green.
o. Hydrogen Peroxide: 30% solution is kept in the dark and at 4° C.
All the following steps are conducted at room temperature unless it is specifically indicated. All ELISA plate washings are performed by rinsing the plate with tap water three times, followed by one TBST rinse. Pat plate dry with paper towels.
1. The cells, grown in tissue culture dish (Corning 25020-100) to 80-90% confluence, are harvested with Trypsin-EDTA (0.25%, 0.5 mL/D-100, GIBCO).
2. Resuspend the cells in fresh DMEM+10% FBS+2 mM L-Glutamine, and transfer to 96-well tissue culture plate (Corning, 25806-96) at 20,000 cells/well (100 μL/well). Incubate for 1 day then replace medium to serum-free medium (90/μL) and incubate in 5% CO2 and 37° C. overnight.
B. ELISA Plate Coating and Blocking:
1. Coat the ELISA plate (Corning 25805-96) with Anti-IGF-1R Antibody at 0.5 μg/well in 100 μL PBS at least 2 hours.
2. Remove the coating solution, and replace with 100 μL Blocking Buffer, and shake for 30 minutes. Remove the blocking buffer and wash the plate just before adding lysate.
1. The drugs are tested in serum-free condition.
2. Dilute drug stock (in 100% DMSO) 1:10 with DMEM in 96-well poly-propylene plate, and transfer 10 μL/well of this solution to the cells to achieve final drug dilution 1:100, and final DMSO concentration of 1.0%. Incubate the cells in 5% CO2 at 37° C. for 2 hours.
3. Prepare fresh cell lysis buffer (HNTG*)
4. After drug incubation for two hours, transfer 10 μL/well of 200 nM IGF-1 Ligand in PBS to the cells (Final Conc.=20 nM), and incubate at 5% CO2 at 37° C. for 10 minutes.
5. Remove media and add 100 μL/well HNTG* and shake for 10 minutes. Look at cells under microscope to see if they are adequately lysed.
6. Use a 12-channel pipette to scrape the cells from the plate, and homogenize the lysate.by repeated aspiration and dispensing. Transfer all the lysate to the antibody coated ELISA plate, and shake for 1 hour.
7. […]

Structures are written as SMILES. Bounds are passed on as bounds.

T1 sequence (P00533 25-1210): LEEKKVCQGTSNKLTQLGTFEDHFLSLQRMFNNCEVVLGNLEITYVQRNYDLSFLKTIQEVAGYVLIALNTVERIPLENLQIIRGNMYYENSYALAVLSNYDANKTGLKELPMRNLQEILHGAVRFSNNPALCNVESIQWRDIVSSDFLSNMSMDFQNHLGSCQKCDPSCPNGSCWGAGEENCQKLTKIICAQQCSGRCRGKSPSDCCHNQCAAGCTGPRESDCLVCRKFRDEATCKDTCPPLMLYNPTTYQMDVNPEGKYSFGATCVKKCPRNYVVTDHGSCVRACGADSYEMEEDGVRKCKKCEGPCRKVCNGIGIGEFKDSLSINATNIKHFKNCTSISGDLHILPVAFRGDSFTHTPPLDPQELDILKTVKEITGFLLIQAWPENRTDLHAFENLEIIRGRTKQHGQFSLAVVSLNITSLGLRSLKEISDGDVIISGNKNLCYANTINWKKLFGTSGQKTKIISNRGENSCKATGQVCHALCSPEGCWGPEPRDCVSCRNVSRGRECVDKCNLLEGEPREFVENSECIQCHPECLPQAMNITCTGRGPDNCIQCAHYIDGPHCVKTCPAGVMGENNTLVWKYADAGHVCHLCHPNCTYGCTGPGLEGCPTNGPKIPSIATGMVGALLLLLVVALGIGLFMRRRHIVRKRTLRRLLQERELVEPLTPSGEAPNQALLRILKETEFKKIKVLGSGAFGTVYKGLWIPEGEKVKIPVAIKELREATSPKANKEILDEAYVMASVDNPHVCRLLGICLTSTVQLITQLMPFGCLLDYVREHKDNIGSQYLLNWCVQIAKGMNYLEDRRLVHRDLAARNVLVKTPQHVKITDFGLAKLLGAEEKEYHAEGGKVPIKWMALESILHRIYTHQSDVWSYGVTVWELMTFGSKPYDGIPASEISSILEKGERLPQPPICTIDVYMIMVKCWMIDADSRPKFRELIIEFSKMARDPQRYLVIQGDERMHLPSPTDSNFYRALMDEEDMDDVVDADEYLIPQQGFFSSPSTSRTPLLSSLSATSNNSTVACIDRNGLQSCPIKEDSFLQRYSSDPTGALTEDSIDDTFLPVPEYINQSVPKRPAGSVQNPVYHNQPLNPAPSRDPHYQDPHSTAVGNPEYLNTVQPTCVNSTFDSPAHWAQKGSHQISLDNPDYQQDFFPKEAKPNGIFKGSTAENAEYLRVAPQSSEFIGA
T2 sequence (P08069 31-1367, species assumed): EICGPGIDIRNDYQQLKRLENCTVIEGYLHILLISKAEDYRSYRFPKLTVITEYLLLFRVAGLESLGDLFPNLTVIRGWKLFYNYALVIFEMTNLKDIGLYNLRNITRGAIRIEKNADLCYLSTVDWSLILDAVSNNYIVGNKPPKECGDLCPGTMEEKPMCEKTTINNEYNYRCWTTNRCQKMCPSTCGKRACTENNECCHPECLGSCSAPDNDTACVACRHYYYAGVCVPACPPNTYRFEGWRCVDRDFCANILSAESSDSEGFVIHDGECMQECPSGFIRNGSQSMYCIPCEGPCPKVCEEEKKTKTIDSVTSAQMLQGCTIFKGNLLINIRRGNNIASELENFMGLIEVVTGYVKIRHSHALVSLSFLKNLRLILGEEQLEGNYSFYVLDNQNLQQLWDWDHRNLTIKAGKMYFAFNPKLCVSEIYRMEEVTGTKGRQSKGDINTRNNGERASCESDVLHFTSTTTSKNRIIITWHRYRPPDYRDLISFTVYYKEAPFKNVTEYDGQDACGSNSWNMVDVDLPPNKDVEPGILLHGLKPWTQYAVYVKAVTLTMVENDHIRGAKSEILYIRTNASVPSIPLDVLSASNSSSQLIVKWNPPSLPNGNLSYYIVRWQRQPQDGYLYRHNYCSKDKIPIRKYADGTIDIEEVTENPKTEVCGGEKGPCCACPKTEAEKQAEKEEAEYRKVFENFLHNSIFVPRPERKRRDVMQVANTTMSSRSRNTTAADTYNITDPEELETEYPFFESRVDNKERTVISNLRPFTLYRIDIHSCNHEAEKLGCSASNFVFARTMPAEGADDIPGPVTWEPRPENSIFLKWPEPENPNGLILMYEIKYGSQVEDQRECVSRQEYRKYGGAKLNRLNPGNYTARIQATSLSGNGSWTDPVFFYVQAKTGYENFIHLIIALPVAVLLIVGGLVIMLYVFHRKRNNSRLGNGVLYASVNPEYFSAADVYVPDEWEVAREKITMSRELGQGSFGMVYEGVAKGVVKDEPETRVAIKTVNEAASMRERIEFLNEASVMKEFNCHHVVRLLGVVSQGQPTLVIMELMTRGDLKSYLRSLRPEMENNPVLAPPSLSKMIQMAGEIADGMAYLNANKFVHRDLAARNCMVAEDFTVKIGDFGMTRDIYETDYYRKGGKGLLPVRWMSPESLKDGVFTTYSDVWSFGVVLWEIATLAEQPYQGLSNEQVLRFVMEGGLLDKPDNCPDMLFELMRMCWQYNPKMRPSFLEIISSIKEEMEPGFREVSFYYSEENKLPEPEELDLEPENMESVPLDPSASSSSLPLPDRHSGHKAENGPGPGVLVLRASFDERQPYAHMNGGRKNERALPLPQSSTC

In general, IC50 refers to the concentration that inhibits the measured activity by half. Take `CCOC(=O)c1c(C)[nH]c(C=C2C(=O)Nc3ccccc32)c1C` [3-(2,4-dimethyl-3-ethoxycarbonylpyrrol-5-methylidenyl)-2-indolinone]: the IC50 in experiment [1] and in experiment [2] was > 100 µM in each case.

`CCc1c(C=C2C(=O)Nc3ccccc32)[nH]c(C(=O)O)c1C` [3-(2-carboxy-4-ethyl-3-methylpyrrol-5-methylidenyl)-2-indolinone]: the IC50 in experiment [1] and in experiment [2] was > 100 µM throughout.
